Test results: US11274101B2, “Heterocyclic compound” (Takeda Pharmaceutical Company Limited, priority 2017, dated 2022)

Target: T1, His-hMAGL (recombinant polyhistidine tagged human MAGL protein) (Homo sapiens, UniProt Q99685)
T1 construct: made in house; host or cells: E. coli BL21(DE3)
T1 sequence (Q99685 1-303): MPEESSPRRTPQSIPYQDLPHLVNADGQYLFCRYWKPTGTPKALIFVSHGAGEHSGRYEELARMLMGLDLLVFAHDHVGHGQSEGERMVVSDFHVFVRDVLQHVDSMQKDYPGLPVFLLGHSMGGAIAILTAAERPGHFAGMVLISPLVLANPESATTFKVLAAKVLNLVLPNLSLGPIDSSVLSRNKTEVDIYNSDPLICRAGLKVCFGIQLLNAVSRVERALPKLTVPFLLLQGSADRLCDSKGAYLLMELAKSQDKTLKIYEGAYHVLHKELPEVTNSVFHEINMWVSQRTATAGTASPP
Assay: Measurement of MAGL inhibitory activity (arachidonic acid production from 2-arachidonylglycerol, RapidFire-mass spectrometry)
Format: biochemical
Conditions: test compound 10 μM; MAGL inhibitory rate
Method: The His-hMAGL obtained above was diluted with enzyme reaction buffer (10 mM Tris-HCl, pH 7.5, 1 mM EDTA, 0.025 (w/v) % Triton X-100, 0.01% Bovine serum albumin) to a concentration of 7.5 ng/mL. To each well of a 384 well assay plate (Greiner 781280) was added a solution (5 μL) of a test compound dissolved in dimethyl sulfoxide (DMSO), which was diluted with the above-mentioned enzyme reaction buffer, then His-hMAGL solution (5 μL) diluted to a concentration of 7.5 ng/mL was added, and the mixture was incubated at room temperature for 60 min. Thereafter, to each well was added 5 μL of 150 μM 2-arachidonylglycerol (Tocris Bioscience), and the mixture was incubated at room temperature for 10 min. Then, 10 μL of 2% formic acid (Wako Pure Chemical Industries, Ltd.) was added to stop the reaction. Furthermore, acetonitrile (50 μL) containing 3 μM arachidonic acid-d8 (Cayman Chemical Company) was added and the mixture was stirred.
The amount of arachidonic acid in the obtained enzyme reaction mixture was calculated by measuring by RapidFire-mass spectrometry and correcting by the amount of arachidonic acid-d8. High Throughput online solid phase extraction was performed using RapidFire 300™ system (Agilent Technologies, Inc.). Samples were loaded on SPE C4 cartridge (Agilent Technologies, Inc.) and desalted with 0.2 (v/v) % acetic acid (Wako Pure Chemical Industries, Ltd.) in ultrapure water/acetonitrile (70/30, v/v) at a flow rate of 1.5 mL/min, eluted at a flow rate of 0.5 mL/min with 0.2 (v/v) % acetic acid dissolved in acetonitrile/ultrapure water (90/10, v/v), and injected into the mass spectrometry part. The injection needle was washed with ultrapure water (500 millisecond) and acetonitrile (500 millisecond) to minimize carry-over. The suction time (injection loop 5 μL), load/cleansing time, elution time and re-equilibration time were adjusted to 300, 3000, 4250 and 1000 milliseconds, respectively, and the total cycle time was adjusted to about 10.0 seconds. The RapidFire300 system was controlled by RapidFire UI software version 3.6 (Agilent Technologies, Inc.).
The mass spectrometry of the resultant product was performed using API4000™ triple quadrupole mass spectrometer (AB SCIEX) equipped with an electrospray ion sauce (TurboIon Spray™) in a negative selected reaction monitoring (SRM) mode. The conditions of SRM are shown below. The parameters of the instrument were optimized as follows: capillary temperature 600° C., ion spray voltage −4.5 kV, collision gas 8, curtain gas 15 psi, ion source gas 1 60 psi, ion source gas 2 60 psi. The mass spectrometer was controlled by Analyst™ software version 1.5.1 (AB SCIEX). The peak area integration was analyzed using RapidFire integrator software version 3.6 (Agilent Technologies, Inc.).
MAGL inhibitory rate (%) was calculated according to the following calculation formula. (1-(arachidonic acid production amount of test compound addition group−arachidonic acid production amount of enzyme-free group)+(arachidonic acid production amount of test compound-free group−arachidonic acid production amount of enzyme-free group))×100

Compound	inhibition at 10 µM
O=C1NC2(CO1)CN(C(=O)O[C@H]1C[C@@H](Oc3ccc(C(F)(F)F)cc3F)C1)C2 [Example 1, cis-3-(2-fluoro-4-(trifluoromethyl)phenoxy)cyclobutyl 6-oxo-7-oxa-2,5-diazaspiro[3.4]octane-2-carboxylate]	100%
O=C1NC2(CO1)CN(C(=O)O[C@H]1C[C@@H](OCc3ccccc3)C1)C2 [Example 2, cis-3-(benzyloxy)cyclobutyl 6-oxo-7-oxa-2,5-diazaspiro[3.4]octane-2-carboxylate]	101%
Cc1ccc(CO[C@H]2C[C@@H](OC(=O)N3CC4(COC(=O)N4)C3)C2)cc1Cl [Example 3, cis-3-((3-chloro-4-methylbenzyl)oxy)cyclobutyl 6-oxo-7-oxa-2,5-diazaspiro[3.4]octane-2-carboxylate]	101%
Cc1cc(CO[C@H]2C[C@@H](OC(=O)N3CC4(COC(=O)N4)C3)C2)ccc1Cl [Example 4, cis-3-((4-chloro-3-methylbenzyl)oxy)cyclobutyl 6-oxo-7-oxa-2,5-diazaspiro[3.4]octane-2-carboxylate]	100%
Cc1ccc(CO[C@H]2C[C@@H](OC(=O)N3CC4(COC(=O)N4)C3)C2)c(F)c1F [Example 5, cis-3-((2,3-difluoro-4-methylbenzyl)oxy)cyclobutyl 6-oxo-7-oxa-2,5-diazaspiro[3.4]octane-2-carboxylate]	99%
O=C1NC2(CO1)CN(C(=O)O[C@H]1C[C@@H](OCc3ccc(F)c(F)c3F)C1)C2 [Example 6, cis-3-((2,3,4-trifluorobenzyl)oxy)cyclobutyl 6-oxo-7-oxa-2,5-diazaspiro[3.4]octane-2-carboxylate]	101%
O=C1NC2(CO1)CN(C(=O)O[C@H]1C[C@@H](OCc3cc(F)c(F)cc3F)C1)C2 [Example 7, cis-3-((2,4,5-trifluorobenzyl)oxy)cyclobutyl 6-oxo-7-oxa-2,5-diazaspiro[3.4]octane-2-carboxylate]	100%
O=C1NC2(CO1)CN(C(=O)O[C@H]1C[C@@H](OCc3c(F)cc(F)cc3F)C1)C2 [Example 8, cis-3-((2,4,6-trifluorobenzyl)oxy)cyclobutyl 6-oxo-7-oxa-2,5-diazaspiro[3.4]octane-2-carboxylate]	100%
O=C1NC2(CO1)CN(C(=O)O[C@H]1C[C@@H](OCc3ccc(Cl)c(Cl)c3)C1)C2 [Example 9, cis-3-((3,4-dichlorobenzyl)oxy)cyclobutyl 6-oxo-7-oxa-2,5-diazaspiro[3.4]octane-2-carboxylate]	99%
O=C1NC2(CO1)CN(C(=O)O[C@H]1C[C@@H](OCc3ccc(C(F)(F)F)cc3F)C1)C2 [Example 10, cis-3-((2-fluoro-4-(trifluoromethyl)benzyl)oxy)cyclobutyl 6-oxo-7-oxa-2,5-diazaspiro[3.4]octane-2-carboxylate]	99%
O=C1NC2(CO1)CN(C(=O)O[C@H]1C[C@@H](OCc3ccc(C(F)(F)F)c(Cl)c3)C1)C2 [Example 11, cis-3-((3-chloro-4-(trifluoromethyl)benzyl)oxy)cyclobutyl 6-oxo-7-oxa-2,5-diazaspiro[3.4]octane-2-carboxylate]	100%
Cc1ccc(OC[C@H]2C[C@@H](OC(=O)N3CC4(COC(=O)N4)C3)C2)c(F)c1 [Example 12, cis-3-((2-fluoro-4-methylphenoxy)methyl)cyclobutyl 6-oxo-7-oxa-2,5-diazaspiro[3.4]octane-2-carboxylate]	101%
Cc1cc(F)ccc1OC[C@H]1C[C@@H](OC(=O)N2CC3(COC(=O)N3)C2)C1 [Example 13, cis-3-((4-fluoro-2-methylphenoxy)methyl)cyclobutyl 6-oxo-7-oxa-2,5-diazaspiro[3.4]octane-2-carboxylate]	102%
O=C1NC2(CO1)CN(C(=O)O[C@H]1C[C@@H](COc3ccc(F)cc3Cl)C1)C2 [Example 14, cis-3-((2-chloro-4-fluorophenoxy)methyl)cyclobutyl 6-oxo-7-oxa-2,5-diazaspiro[3.4]octane-2-carboxylate]	98%
